Four compounds from patent US10513511B2, “Aqueous suspension formulation comprising 4-(4-(4-(((3R,5R)-5-((1H-1,2,4-triazol-1-yl)methyl)-5-(2,4-difluoro-phenyl)tetrahydrofuran-3-yl)methoxy)-3-methylphenyl) or a pharmaceutically acceptable salt thereof” (PULMOCIDE LIMITED, priority 2015, dated 2019) can be followed below.

In brackets after ≈: the same amount, converted by molar mass. Read-outs that look alike come from different tables or passages of the source.

Holding throughout (type): cell-based
In data set [1] the test system is Aspergillus fumigatus TR46 (TR46/Y121F/T289A). Briefly: Planktonic fungus growth: broth microdilution assay (TR46). Conditions: for MIC: Aspergillus fumigatus, read-out: MIC75 Values against Aspergillus fumigatus isolate TR46. On the procedure: (§1) This assay was conducted using a modified method published by EUCAST (Rodriguez-Tudela, et al., 2008). Spores of Aspergillus fumigatus (NCPF2010, NCPF7010 [methionine 220 mutation], NCPF7099 [Glycine G54 mutation]) from Public Health England, Wiltshire; TR34/L98H mutants from St Louis Hospital, Paris, France; TR46/Y121F/T289A mutants from University of Delhi, Delhi, India) were cultured in Sabouraud dextrose agar for 3 days. A stock spore suspension was prepared from a Sabouraud dextrose agar culture by washing with PBS-tween (10 mL; phosphate buffered saline containing 0.05% Tween-20, 100 U/mL penicillin and 100 U/mL streptomycin). The spore count was assessed using a Neubauer haemocytometer and then adjusted to 10^6 spores/mL with PBS. A working suspension of spores (2×10^5 spores/mL) was prepared in filter sterilised, BSA MOPS RPMI-1640 (50 mL; RPMI-1640 containing 2 mM L-glutamine, 0.5% BSA, 2% glucose, 0.165 M MOPS, buffered to pH 7 with NaOH).
(§2) For the assay, BSA MOPS RPMI-1640 (50 μL/well) was added throughout the 384-well plate (Catalogue number 353962, BD Falcon, Oxford, UK) first. Test compounds (0.5 μL DMSO solution) were then added in quadruplicate using an Integra VIAFLO 96 (Integra, Zizers, Switzerland), and mixed well using a plate mixer. Subsequently 50 μL of the working spore suspension prepared above was added to all wells except non-spore control wells. For non-spore control wells, BSA MOPS-RPMI solution (50 μL/well) was added instead. The plate was covered with a plastic lid, and incubated (35° C. with ambient air) for 48 hr. The OD of each well at 530 nm was determined using a multi-scanner (Clariostar: BMG, Buckinghamshire, UK). The percentage inhibition for each well was calculated and the MIC50, MIC75 and MIC90 values were calculated from the concentration-response curve generated for each test compound.
(In general: Broth dilution looks for growth in wells or tubes with falling amounts of substance.)

Another data set relates to BEAS2B cells. Briefly: Cell viability: resazurin assay. Conditions: for effect on the viability of BEAS2B bronchial epithelial cells: at concentrations indicated in Table 4. The procedure: (§3) BEAS2B cells were seeded in 384-well plates (100 μL; 3000/well/; BD Falcon, Catalogue No 353962) in RPMI-LHC8 (RPMI-1640 and LHC8 media combined in equal proportions) one day before experimentation. For cell-free control wells, RPMI-LHC8 (100 μL) was added. Test compounds (0.5 μL of a DMSO solution) were added to give a final DMSO concentration of 0.5% using an Integra VIAFLO 96 (Integra, Zizers, Switzerland). BEAS2B cells were incubated with each test compound for 1 day (37° C./5% CO2 in RPMI-LHC8). After addition of resazurin stock solution (5 μL, 0.04%) the plates were incubated for a further 4 hr (37° C./5% CO2). The fluorescence of each well at 545 nm (excitation) and 590 nm (emission) was determined using a multi-scanner (Clariostar: BMG Labtech). The percentage loss of cell viability was calculated for each well relative to vehicle (0.5% DMSO) treatment. Where appropriate, a CC50 value was calculated from the concentration-response curve generated from the concentration-response curve for each test compound.
A general note: Resazurin is reduced to fluorescent resorufin, in cell work by metabolically active cells.

The subject of data set [2] is Aspergillus fumigatus L98H (TR34/L98H). Put plainly: Planktonic fungus growth: broth microdilution assay (L98H). To be noted: for MIC: Aspergillus fumigatus, read-out: MIC75 Values against Aspergillus fumigatus isolate L98H. On the procedure: as §1, §2
Data set [3] deals with Aspergillus fumigatus NCPF2010. Briefly: Planktonic fungus growth: broth microdilution assay (NCPF2010). On the procedure:
as §1, §2

Data set [4] concerns Aspergillus fumigatus NCPF7099. Put plainly: Planktonic fungus growth: broth microdilution assay (NCPF7099). The procedure:
as §1, §2

Data set [5] has as its system Aspergillus fumigatus NCPF7100. Briefly: Planktonic fungus growth: broth microdilution assay (NCPF7100). Conditions: for MIC: Aspergillus fumigatus, NCPF7100, read-out: MIC75 Values against Aspergillus fumigatus isolate NCPF7100.
For data set [6], the system named is Aspergillus fumigatus (azole resistant strain: TR34/L98H). Put plainly: Aspergillus fumigatus infection of human alveoli bilayers (transwells), azole resistant strain. Conditions: TR34-L98H, Compound 0.3 μg/mL upper chamber, posaconazole 0.1 μg/mL lower chamber, combination of both. The procedure: In vitro models of human alveoli, consisting of a bilayer of human alveolar epithelial cells and endothelial cells, were prepared as previously described (Hope et al., 2007). This system allows administration of a test compound to the upper (“air” space) and/or lower (“systemic” space) compartments. This flexibility has been exploited to explore the effects of combination treatment by dosing Compound (I) to the upper chamber and posaconazole or other anti-fungal agents to the lower chamber. Primary human pulmonary artery endothelial cells (HPAEC) were harvested and diluted to 10^6 cells/mL in EGM-2 media (Lonza, Basel, Switzerland). Transwells were inverted and the cell suspension (100 μL/well) applied to the base of each transwell. The inverted transwells were incubated at RT within a flow hood for 2 hr after which they were turned upright. EGM-2 media was added to the lower (700 μL/well) and upper (100 μL/well) compartments and the transwells were incubated for 48 hr (37° C., 5% CO2). The EGM-2 media in the lower compartment was then replaced with fresh EGM-2 media. A549 cells were harvested and diluted to 5×10^5 cells/mL in 10% EBM, then added to the upper compartment (100 μL/well) of all transwells and the plates incubated for 72 hr (37° C., 5% CO2). Conidia of itraconazole sensitive Aspergillus fumigatus s (NCPF2010) and itraconazole resistant (TR34-L98H) strains were cultured separately in Sabouraud dextrose agar for 3 days. A stock conidia suspension of either strain was prepared from a Sabouraud dextrose agar culture by washing with PBS-tween (10 mL; PBS containing 0.05% Tween-20, 100 U/mL Penicillin and 100 U/mL Streptomycin). The conidia count was assessed using a Neubauer haemocytometer and adjusted to 10^6 conidia/mL with PBS. A working stock of conidia was prepared in EBM (10^5 conidia/mL) immediately prior to use.
Test and reference compounds (or neat DMSO as the vehicle) were added to the appropriate wells of 24-well plates (3 μL/well containing 600 μL of 2% FBS EBM) for lower compartment treatment and to 96-well plates (1 μL/well containing 200 μL of 2% FBS EBM) for the treatment of the upper compartment, to provide a final DMSO concentration of 0.5%. The media in the upper compartment was aspirated and that containing the appropriate test and reference compounds, or vehicle, were added (100 μL/well). Transwells were then transferred into the 24-well plate containing the test and reference compounds or DMSO vehicle. After incubation for 1 hr (35° C., 5% CO2) the conidia suspension (10 μL/well) was added to the upper compartment of each transwell. Plates were then incubated for 24 hr (35° C., 5% CO2). Supernatants from each compartment (5 μL/compartment) were collected and stored (−20° C.). Media was replaced daily after collection of the supernatants and all wells were treated with test and reference compounds or with DMSO, as described above, for 3 days. Samples continued to be collected until fungal growth was visible by eye in all transwells. The levels of GM in the supernatant in lower compartment were then measured by ELISA (BioRad, CA, USA) as an index of Aspergillus fumigatus invasion.

The nature of data set [7]: Cell viability: resazurin assay. To be noted: human, BEAS2B cells; 1 day incubation, resazurin; n = 3. On the procedure: as §3
The mark [8] stands for this setting: broth microdilution assay, n = 2-3.
The mark [9] stands for this setting: Aspergillus fumigatus, NCPF2010, n = 2-3, read-out: MIC75 Values against Aspergillus fumigatus isolate NCPF2010.
The mark [10] stands for this setting: Aspergillus fumigatus, NCPF7099, n = 2-3, read-out: MIC75 Values against Aspergillus fumigatus isolate NCPF7099.

As to `C[C@@H]1[C@H](O)[C@@H](C)/C=C/C=C/C=C/C=C/C=C/C=C/C=C/[C@H](O[C@@H]2O[C@H](C)[C@@H](O)[C@H](N)[C@@H]2O)C[C@@H]2O[C@](O)(C[C@@H](O)C[C@@H](O)[C@H](O)CC[C@@H](O)C[C@@H](O)CC(=O)O[C@H]1C)C[C@H](O)[C@H]2C(=O)O` [Amphotericin B, reference compound], the “MIC75 Values against Aspergillus fumigatus isolate TR46” value in data set [1] (setting [8]) came to 0.187 µM (≈ 0.173 µg/mL). Moreover, the 50% cytotoxic concentration (CC50) (usually the concentration giving 50% cytotoxicity) in the data set on BEAS2B cells (1 day incubation, resazurin, n = 3) was 2.34 µM. For the same compound, in data set [2] (setting [8]), the “MIC75 Values against Aspergillus fumigatus isolate L98H” value turned out to be 0.195 µM (≈ 0.18 µg/mL). In addition, the MIC in data set [3] (n = 2-3, read-out: MIC75 Values against Aspergillus fumigatus isolate NCPF2010) was determined as 0.407 µM (≈ 0.376 µg/mL); in data set [4] (n = 2-3, read-out: MIC75 Values against Aspergillus fumigatus isolate NCPF7099), 0.248 µM (≈ 0.229 µg/mL). Besides, the “MIC75 Values against Aspergillus fumigatus isolate NCPF7100” value in data set [5] (setting [8]) came out at 0.523 µM (≈ 0.483 µg/mL).

With `Cc1cc(N2CCN(c3ccc(C(=O)NC4CCCCC4O)cc3)CC2)ccc1OC[C@@H]1CO[C@@](Cn2cncn2)(c2ccc(F)cc2F)C1` (stereo partly drawn) [Compound (I), 4-(4-(4-(((3R,5R)-5-((1H-1,2,4-triazol-1-yl)methyl)-5-(2,4-difluorophenyl)tetrahydrofuran-3-yl)methoxy)-3-methylphenyl)piperazin-1-yl)-N-(2-hydroxycyclohexyl)benzamide], the “GM Levels in the Lower Chamber, OD value” in data set [6] (Day 0) is 0 OD; in data set [6] (Day 1), 0.016 OD; in data set [6] (Day 2), 0.84 OD; in data set [6] (Day 3) it was 1.01 OD. Besides, the “GM Levels in the Lower Chamber, % inhibition vs. vehicle control” value came out at 98% in data set [6] (Day 1), 24% in data set [6] (Day 2) and 4.6% in data set [6] (Day 3). Also, the “DFB50: Days taken to reach a fungal burden of 50% of control” value in data set [6] came to 1.53 days.

For the compound `Cc1cc(N2CCN(c3ccc(C(=O)N[C@@H]4CCCC[C@@H]4O)cc3)CC2)ccc1OC[C@@H]1CO[C@@](Cn2cncn2)(c2ccc(F)cc2F)C1` [Compound (Id), 4-(4-(4-(((3R,5R)-5-((1H-1,2,4-triazol-1-yl)methyl)-5-(2,4-difluorophenyl)tetrahydrofuran-3-yl)methoxy)-3-methylphenyl)piperazin-1-yl)-N-((1R,2S)-2-hydroxycyclohexyl)benzamide], the MIC in data set [1] is 0.316 µM (≈ 0.217 µg/mL); in data set [2], 0.07 µM (≈ 0.0481 µg/mL); in data set [3] (setting [9]), 0.00851 µM (≈ 0.00584 µg/mL); in data set [4] (setting [10]), 0.0117 µM (≈ 0.00804 µg/mL); in data set [5], 0.0252 µM (≈ 0.0173 µg/mL). In the data set with BEAS2B cells, the “effect on the viability of BEAS2B bronchial epithelial cells” value is “no or little effect”. Also, in data set [7], the 50% cytotoxic concentration (CC50) at 1 day is > 14.6 µM.

Consider `Cc1cc(N2CCN(c3ccc(C(=O)N[C@@H]4CCCC[C@H]4O)cc3)CC2)ccc1OC[C@@H]1CO[C@@](Cn2cncn2)(c2ccc(F)cc2F)C1` [Compound (Ib), 4-(4-(4-(((3R,5R)-5-((1H-1,2,4-triazol-1-yl)methyl)-5-(2,4-difluorophenyl)tetrahydrofuran-3-yl)methoxy)-3-methylphenyl)piperazin-1-yl)-N-((1R,2R)-2-hydroxycyclohexyl)benzamide], for which the MIC in data set [1] stood at 0.334 µM (≈ 0.229 µg/mL); in data set [2] it was 0.303 µM (≈ 0.208 µg/mL); in data set [3] (setting [9]), 0.00802 µM (≈ 0.00551 µg/mL); in data set [4] (setting [10]), 0.0862 µM (≈ 0.0592 µg/mL); in data set [5], 0.0873 µM (≈ 0.06 µg/mL). For the same compound, the “effect on the viability of BEAS2B bronchial epithelial cells” value in the data set with BEAS2B cells is reported as “no or little effect”. In addition, the CC50 at 1 day in data set [7] is > 14.6 µM.
